# Source: publication PMC7211195 (Investigational New Drugs, 2019)
# Like-named read-outs stand apart in the source and are kept apart here.
# Test: Lapatinib pharmacokinetics and uptake in rat cerebrospinal fluid (CSF)
# Assay type: in vivo, rats
# Conditions: for MRT last: read-out: MRT0-t
# Protocol: This study was conducted on rats, which are a promising model to predict P-gp-based drug-drug interactions at the human BBB [15]. The animals were allowed to acclimate for one week before the beginning of the experiments. Adult male Wistar-strain rats (weight 470–525 g) were used in the study. The animals were maintained under standard breeding conditions with a 12/12 h light-dark cycle (lights on at 6.00 a.m., lights off at 6.00 p.m.) at constant room temperature (23 ± 2 °C), relative humidity (55 ± 10%) and ad libitum access to food and water. The experimental protocol for this study was reviewed and approved by the Local Ethics Committee. To obtain consistent data, the study was based on the required minimum number of animals and observation time. […] Three rats were used at each time point (n = 3). In total, the research was conducted on 66 animals (n = 33 in the experimental group and n = 33 in the control group).
# Elacridar was freshly dissolved in a vehicle at an initial concentration of 20 mg/mL. […] A volume of 80 μL of blood was collected from each rat by cutting off a piece of its tail. The blood samples were collected into heparinized test tubes at the following time points: before treatment (time 0), 5 min, 30, min, and 1, 2, 3, 4, 6, 8, 12, and 24 h after administration of the drugs, and they were immediately centrifuged at 2880 g for 10 min at 4 °C. The anaesthetized rats (anaesthetized by intramuscular administration of 50 mg/kg ketamine and 10 mg/kg xylazine) were prepared for cisterna magna puncture. The hair over the puncture was removed and the skin was disinfected with alcohol. The animals were placed in a recumbent position with an elevated rear part of the body. The animals’ heads were slightly flexed and immobilized with the operator’s left hand. The space between the occiput rostrally and the atlas (C1) of the spinal column caudally was gently palpated with the left thumb. A 0.7 × 20 G needle with polyethylene tubing (Terumo Poland, Warsaw, Poland) was gently inserted at an approximate angle of 80–90° through the skin with the operator’s right hand into the midsagittal region. The moment that dura mater perforation was perceptible, a small amount of CSF was found in the needle tubing. To sample additional CSF, a 1 mL insulin syringe (Becton Dickinson, Warsaw, Poland) was used to collect 80–120 μL of CSF by very gentle aspiration. Only clear CSF was collected for further analysis. […] The animals’ brains were immediately dissected, washed in 0.9% NaCl and divided along the longitudinal axis. One of the brain hemispheres was again rinsed three times with 5 mL of 0.9% NaCl, weighed and homogenized with 0.9% NaCl (4 mL per 1 g of BT) in an Ultra-Turrax homogenizer (Witko, Łódź, Poland). The homogenate was then centrifuged at 4500 g for 10 min. All samples of the rat BP, CSF, and BT homogenate supernatant were stored at −80 °C until analysis.
# The chromatographic analysis was conducted using a 1260 Infinity system (Agilent Technologies, Santa Clara, USA) equipped with a Kinetex® C18 column (50 × 4.6 mm, 2.6 μm, Phenomenex, Torrance, USA), which was maintained at 35 °C. The mobile phase consisted of 0.1% formic acid (v/v) in water with 5 mM ammonium formate (solvent A) and acetonitrile with 10% phase A (v/v, solvent B). The analyte and internal standard (IS, erlotinib) were eluted using a gradient run of 10 min as follows: 95% A at 0–2 min; 95%–5% A at 2–4 min; 5% A at 4–5 min; 5%–95% A at 5–6 min; 95% A at 6–10 min. The flow rate and injection volume were set at 0.7 mL/min and 10 μL, respectively. The needle was washed for 30 s in a mixture of acetonitrile, methanol, isopropanol, water, and formic acid (50:20:15:15:0.25, v/v/v/v/v).
# [1] = cerebrospinal fluid, lapatinib 100 mg/kg oral + 5 mg/kg elacridar (IE+L)
# [2] = cerebrospinal fluid, lapatinib 100 mg/kg oral alone (IIL)
# [3] = male, Wistar, rat, cerebrospinal fluid (CSF), po, 100 mg/kg, lapatinib p.o. 100 mg/kg alone, read-out: Clapatinib in CSF, S (medium value)
# [4] = male, Wistar, rat, cerebrospinal fluid (CSF), po, 100 mg/kg, lapatinib p.o. 100 mg/kg alone, read-out: Clapatinib in CSF, single rat
# [5] = male, Wistar, rat, cerebrospinal fluid, oral, lapatinib 100 mg/kg + elacridar, read-out: Clapatinib in CSF, S
# [6] = male, Wistar, rat, cerebrospinal fluid, oral, lapatinib 100 mg/kg + elacridar, read-out: Clapatinib in CSF, single rat
# [7] = male, Wistar, rat, cerebrospinal fluid, po, 100 mg/kg, cerebrospinal fluid, lapatinib 100 mg/kg oral + 5 mg/kg elacridar (IE+L)
# [8] = male, Wistar, rat, cerebrospinal fluid, po, 100 mg/kg, lapatinib 100 mg/kg oral alone (IIL)
compound,measurement,setting,value
"CS(=O)(=O)CCNCc1ccc(-c2ccc3ncnc(Nc4ccc(OCc5cccc(F)c5)c(Cl)c4)c3c2)o1 [lapatinib, N-{3-Chloro-4-[(3-fluorobenzyl)oxy]phenyl}-6-[5-({[2-(methylsulfonyl)ethyl]amino}methyl)-2-furyl]-4-quinazolinamine]",AUC0-∞ increase by elacridar,CSF,1.5 fold
same,Cmax increase in IE+L vs control,CSF,2.4 fold
same,Kp decrease in IL+E group vs control,CSF,42.9%
same,t0.5 longer in the presence of elacridar,CSF,2.6 times
same,AUC0-t elevated in IE+L,"CSF, IE+L vs IIL group",61.2%
same,Cmax increase with elacridar,"CSF, IE+L vs IIL group",136.4%
same,AUMC0-t,[1],1620.02 ng × h^2/mL
same,AUMC0-∞,[1],2725.51 ng × h^2/mL
same,AUMC0-t,[2],1257.21 ng × h^2/mL
same,AUMC0-∞,[2],1767.90 ng × h^2/mL
same,Kp,"male, Wistar, rat, CSF / plasma, oral, 100 mg/kg, IIL group, read-out: Cmax,CSF/Cmax,BP ratio",0.012
same,Kp,"male, Wistar, rat, CSF / plasma, oral, with elacridar 5 mg/kg intraperitoneally, 30 min before lapatinib, IE+L group, read-out: Cmax,CSF/Cmax,BP ratio",0.026
same,concentration at 0.25 h,"male, Wistar, rat, cerebrospinal fluid (CSF), po, 100 mg/kg, lapatinib p.o. 100 mg/kg alone, 0.25 h, read-out: Clapatinib in CSF, S (medium value)",3.73 ng/mL
same,concentration at 1 h,[3],38.5 ng/mL
same,concentration at 1 h,[4],38.5 ng/mL
same,concentration at 2 h,[3],10.8 ng/mL
same,concentration at 2 h,[4],10.8 ng/mL
same,concentration at 3 h,[3],12.2 ng/mL
same,concentration at 3 h,[4],9.49 ng/mL
same,concentration at 4 h,[3],13.8 ng/mL
same,concentration at 4 h,[4],13.8 ng/mL
same,concentration at 6 h,[3],26.9 ng/mL
same,concentration at 6 h,[4],26.9 ng/mL
same,concentration at 8 h,[3],24.4 ng/mL
same,concentration at 8 h,[4],24.4 ng/mL
same,concentration at 12 h,[3],7.23 ng/mL
same,concentration at 0.5 h,"male, Wistar, rat, cerebrospinal fluid, oral, lapatinib 100 mg/kg + elacridar, 0.5 h, read-out: Clapatinib in CSF, S",40.7 ng/mL
same,concentration at 1 h,[5],30 ng/mL
same,concentration at 2 h,[5],75.7 ng/mL
same,concentration at 3 h,[5],51.2 ng/mL
same,concentration at 3 h,[6],45.6 ng/mL
same,concentration at 4 h,[5],91 ng/mL
same,concentration at 4 h,[6],91 ng/mL
same,concentration at 6 h,[5],4.27 ng/mL
same,concentration at 6 h,[6],4.27 ng/mL
same,concentration at 8 h,[5],1.03 ng/mL
same,concentration at 8 h,[6],1.03 ng/mL
same,concentration at 12 h,[5],2.62 ng/mL
same,concentration at 12 h,[6],2.62 ng/mL
same,concentration at 24 h,[5],2.84 ng/mL
same,concentration at 24 h,[6],2.84 ng/mL
same,k el,"male, Wistar, rat, cerebrospinal fluid, po, 100 mg/kg",6.39e-05 s⁻¹
same,AUC(0-inf),[7],387 ng·h/mL
same,AUC(0-t),[7],356 ng·h/mL
same,Cmax,[7],91 ng/mL
same,Tmax,[7],4 h
same,MRT last,[7],4.55 h
same,MRT last,"male, Wistar, rat, cerebrospinal fluid, po, 100 mg/kg, cerebrospinal fluid, lapatinib 100 mg/kg oral alone (IIL)",5.7 h
same,AUC(0-inf),[8],252 ng·h/mL
same,AUC(0-t),[8],221 ng·h/mL
same,Cmax,[8],38.5 ng/mL
same,Tmax,[8],1 h
same,Kp,"male, Wistar, rat, cerebrospinal fluid, po, 100 mg/kg, read-out: Kp (tissue-to-plasma partition coefficient, AUC0-∞-tissue/AUC0-∞-plasma)",0.007
